Target: T1, Epac2^fl (Mus musculus, UniProt Q9EQZ6)
T1 sequence (Q9EQZ6 1-993 isoform Q9EQZ6-3): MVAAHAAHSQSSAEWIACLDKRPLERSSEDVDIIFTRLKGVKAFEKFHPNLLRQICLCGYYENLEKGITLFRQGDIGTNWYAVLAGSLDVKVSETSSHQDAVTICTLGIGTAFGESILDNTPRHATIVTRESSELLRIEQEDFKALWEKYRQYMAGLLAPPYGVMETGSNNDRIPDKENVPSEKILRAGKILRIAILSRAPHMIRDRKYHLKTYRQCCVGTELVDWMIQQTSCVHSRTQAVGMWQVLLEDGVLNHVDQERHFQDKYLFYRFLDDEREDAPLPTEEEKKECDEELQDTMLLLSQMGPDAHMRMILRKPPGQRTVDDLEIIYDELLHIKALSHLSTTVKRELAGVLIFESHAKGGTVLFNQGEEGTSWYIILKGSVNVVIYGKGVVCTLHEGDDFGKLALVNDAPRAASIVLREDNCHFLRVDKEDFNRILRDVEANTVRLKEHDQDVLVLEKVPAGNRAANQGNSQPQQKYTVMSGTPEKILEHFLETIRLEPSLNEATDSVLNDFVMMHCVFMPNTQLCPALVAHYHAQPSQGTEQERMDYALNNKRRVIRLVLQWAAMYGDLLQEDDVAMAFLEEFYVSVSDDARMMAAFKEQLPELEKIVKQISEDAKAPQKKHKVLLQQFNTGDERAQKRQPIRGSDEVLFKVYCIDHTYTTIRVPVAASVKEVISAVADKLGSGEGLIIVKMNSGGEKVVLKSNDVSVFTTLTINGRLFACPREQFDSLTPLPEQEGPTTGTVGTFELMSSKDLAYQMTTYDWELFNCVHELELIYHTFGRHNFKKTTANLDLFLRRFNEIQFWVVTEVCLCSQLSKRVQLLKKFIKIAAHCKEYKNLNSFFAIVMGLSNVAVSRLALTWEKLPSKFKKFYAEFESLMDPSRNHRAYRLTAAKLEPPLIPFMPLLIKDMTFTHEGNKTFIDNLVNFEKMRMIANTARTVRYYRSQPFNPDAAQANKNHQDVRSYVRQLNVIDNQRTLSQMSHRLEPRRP
Assay: Epac activation assay, full length Epac2
Type: biochemical
Parameters: made in house
Details: Epac2^fl
Description: (§1) Murine Epac2 was used as all previous structural studies were performed with it.
(§2) The activity of Epac was determined by a fluorescence assay. […] The fluorescence intensity of Rap1B•mGDP is approximately twice that of free mGDP, and thus, nucleotide exchange can be observed as a decay in fluorescence upon the addition of excess unlabeled GDP.

SMILES | AC50
CNc1nc2c(N)ncnc2n1[C@@H]1O[C@@H]2CO[P@](O)(=S)O[C@H]2[C@H]1O [S-030, Sp-8-MeA-cAMPS] | 10 µM
CSc1nc2c(N)ncnc2n1[C@@H]1O[C@@H]2COP(=O)(O)O[C@H]2[C@H]1SC [D-002, 8,2′-DMeT-cAMP] | 110 µM
Nc1ncnc2c1nc(SCc1ccccc1)n2[C@@H]1O[C@@H]2CO[P@](O)(=S)O[C@H]2[C@H]1F [S-222, Sp-8-BnT-2′-F-cAMPS] | 15 µM
Nc1ncnc2c1nc(Br)n2[C@@H]1O[C@@H]2COP(O)(=S)O[C@@H]2C1O (stereo partly drawn) [S-010, Sp-8-Br-cAMPS] | 8 µM
CO[C@H]1C2OP(O)(=S)OC[C@H]2O[C@H]1n1c(Br)nc2c(N)ncnc21 (stereo partly drawn) [S-014, Sp-8-Br-2′-O-Me-cAMPS] | > 80 µM

Same assay, conditions: Epac2^fl; maximal activity relative to cAMP

SMILES | Rel. kmax
CNc1nc2c(N)ncnc2n1[C@@H]1O[C@@H]2CO[P@](O)(=S)O[C@H]2[C@H]1O [S-030, Sp-8-MeA-cAMPS] | 7.7
CSc1nc2c(N)ncnc2n1[C@@H]1O[C@@H]2COP(=O)(O)O[C@H]2[C@H]1SC [D-002, 8,2′-DMeT-cAMP] | 2.4
Nc1ncnc2c1nc(SCc1ccccc1)n2[C@@H]1O[C@@H]2CO[P@](O)(=S)O[C@H]2[C@H]1F [S-222, Sp-8-BnT-2′-F-cAMPS] | 1.8
Nc1ncnc2c1nc(Br)n2[C@@H]1O[C@@H]2COP(O)(=S)O[C@@H]2C1O (stereo partly drawn) [S-010, Sp-8-Br-cAMPS] | 3.6

Target: T2, Epac2^Δ280 (Mus musculus, UniProt Q9EQZ6)
T2 construct: made in house
T2 sequence (Q9EQZ6 281-993 isoform Q9EQZ6-3): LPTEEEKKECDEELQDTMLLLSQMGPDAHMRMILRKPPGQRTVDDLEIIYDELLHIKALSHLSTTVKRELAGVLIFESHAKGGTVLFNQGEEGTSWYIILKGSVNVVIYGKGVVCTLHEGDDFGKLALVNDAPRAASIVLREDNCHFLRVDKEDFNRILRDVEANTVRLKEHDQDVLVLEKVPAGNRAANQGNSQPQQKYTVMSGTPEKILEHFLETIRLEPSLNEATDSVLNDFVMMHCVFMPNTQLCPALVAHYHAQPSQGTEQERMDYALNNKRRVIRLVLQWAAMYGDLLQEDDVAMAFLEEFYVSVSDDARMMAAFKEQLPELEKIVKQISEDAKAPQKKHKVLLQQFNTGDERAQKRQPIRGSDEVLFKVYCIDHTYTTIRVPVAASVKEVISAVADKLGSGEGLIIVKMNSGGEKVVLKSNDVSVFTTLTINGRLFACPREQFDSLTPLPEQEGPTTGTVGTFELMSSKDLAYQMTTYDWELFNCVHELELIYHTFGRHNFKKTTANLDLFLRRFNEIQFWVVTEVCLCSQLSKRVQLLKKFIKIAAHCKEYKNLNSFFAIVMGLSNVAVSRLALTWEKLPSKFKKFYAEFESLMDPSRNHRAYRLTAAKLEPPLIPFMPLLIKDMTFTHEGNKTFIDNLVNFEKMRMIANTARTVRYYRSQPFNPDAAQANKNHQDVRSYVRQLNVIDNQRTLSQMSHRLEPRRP
Assay: Epac activation assay (Rap1B•mGDP fluorescence nucleotide exchange), Epac2^Δ280
Type: biochemical
Details: Epac2^Δ280
Description: as §1, §2

SMILES | AC50
CNc1nc2c(N)ncnc2n1[C@@H]1O[C@@H]2COP(=O)(O)O[C@H]2[C@H]1O [L-005, 8-MeA-cAMP] | 0.6 µM
CNc1nc2c(N)ncnc2n1[C@@H]1O[C@@H]2CO[P@](O)(=S)O[C@H]2[C@H]1O [S-030, Sp-8-MeA-cAMPS] | 0.7 µM
CSc1nc2c(N)ncnc2n1[C@@H]1O[C@@H]2COP(=O)(O)O[C@H]2[C@H]1SC [D-002, 8,2′-DMeT-cAMP] | 2.6 µM
Nc1ncnc2c1nc(Br)n2[C@@H]1O[C@@H]2COP(=O)(O)O[C@H]2[C@H]1O [L-002, 8-Br-cAMP] | 0.4 µM
Nc1ncnc2c1nc(SCc1ccccc1)n2[C@@H]1O[C@@H]2CO[P@](O)(=S)O[C@H]2[C@H]1F [S-222, Sp-8-BnT-2′-F-cAMPS] | 4.3 µM
Nc1ncnc2c1ncn2[C@H]1C[C@@H]2OP(=O)(O)OC[C@H]2O1 [Z-001, 2′-dcAMP] | 70 µM
Nc1ncnc2c1nc(Br)n2[C@@H]1O[C@@H]2COP(O)(=S)O[C@@H]2C1O (stereo partly drawn) [S-010, Sp-8-Br-cAMPS] | 0.4 µM
CO[C@H]1C2OP(=O)(O)OC[C@H]2O[C@H]1n1cnc2c(N)ncnc21 (stereo partly drawn) [Z-004, 2′-O-Me-cAMP] | 32 µM
Nc1ncnc2c1[nH]c(=O)n2C1OC2COP(=O)(O)OC2C1O [L-021, 8-OH-cAMP] | 0.6 µM
CO[C@H]1C2OP(O)(=S)OC[C@H]2O[C@H]1n1c(Br)nc2c(N)ncnc21 (stereo partly drawn) [S-014, Sp-8-Br-2′-O-Me-cAMPS] | 13 µM

Same assay, conditions: Epac2^Δ280; maximal activity relative to cAMP

SMILES | Rel. kmax
CNc1nc2c(N)ncnc2n1[C@@H]1O[C@@H]2COP(=O)(O)O[C@H]2[C@H]1O [L-005, 8-MeA-cAMP] | 3.3
CNc1nc2c(N)ncnc2n1[C@@H]1O[C@@H]2CO[P@](O)(=S)O[C@H]2[C@H]1O [S-030, Sp-8-MeA-cAMPS] | 8.4
CSc1nc2c(N)ncnc2n1[C@@H]1O[C@@H]2COP(=O)(O)O[C@H]2[C@H]1SC [D-002, 8,2′-DMeT-cAMP] | 2.0
Nc1ncnc2c1nc(Br)n2[C@@H]1O[C@@H]2COP(=O)(O)O[C@H]2[C@H]1O [L-002, 8-Br-cAMP] | 0.9
Nc1ncnc2c1nc(SCc1ccccc1)n2[C@@H]1O[C@@H]2CO[P@](O)(=S)O[C@H]2[C@H]1F [S-222, Sp-8-BnT-2′-F-cAMPS] | 4.2
Nc1ncnc2c1ncn2[C@H]1C[C@@H]2OP(=O)(O)OC[C@H]2O1 [Z-001, 2′-dcAMP] | 1.4
Nc1ncnc2c1nc(Br)n2[C@@H]1O[C@@H]2COP(O)(=S)O[C@@H]2C1O (stereo partly drawn) [S-010, Sp-8-Br-cAMPS] | 3.5
CO[C@H]1C2OP(=O)(O)OC[C@H]2O[C@H]1n1cnc2c(N)ncnc21 (stereo partly drawn) [Z-004, 2′-O-Me-cAMP] | 1.0
Nc1ncnc2c1[nH]c(=O)n2C1OC2COP(=O)(O)OC2C1O [L-021, 8-OH-cAMP] | 0.4
CO[C@H]1C2OP(O)(=S)OC[C@H]2O[C@H]1n1c(Br)nc2c(N)ncnc21 (stereo partly drawn) [S-014, Sp-8-Br-2′-O-Me-cAMPS] | 2.0

Target: T3, Epac1 (Homo sapiens, UniProt O95398)
T3 construct: made in house
T3 sequence (O95398 150-881 isoform O95398-3): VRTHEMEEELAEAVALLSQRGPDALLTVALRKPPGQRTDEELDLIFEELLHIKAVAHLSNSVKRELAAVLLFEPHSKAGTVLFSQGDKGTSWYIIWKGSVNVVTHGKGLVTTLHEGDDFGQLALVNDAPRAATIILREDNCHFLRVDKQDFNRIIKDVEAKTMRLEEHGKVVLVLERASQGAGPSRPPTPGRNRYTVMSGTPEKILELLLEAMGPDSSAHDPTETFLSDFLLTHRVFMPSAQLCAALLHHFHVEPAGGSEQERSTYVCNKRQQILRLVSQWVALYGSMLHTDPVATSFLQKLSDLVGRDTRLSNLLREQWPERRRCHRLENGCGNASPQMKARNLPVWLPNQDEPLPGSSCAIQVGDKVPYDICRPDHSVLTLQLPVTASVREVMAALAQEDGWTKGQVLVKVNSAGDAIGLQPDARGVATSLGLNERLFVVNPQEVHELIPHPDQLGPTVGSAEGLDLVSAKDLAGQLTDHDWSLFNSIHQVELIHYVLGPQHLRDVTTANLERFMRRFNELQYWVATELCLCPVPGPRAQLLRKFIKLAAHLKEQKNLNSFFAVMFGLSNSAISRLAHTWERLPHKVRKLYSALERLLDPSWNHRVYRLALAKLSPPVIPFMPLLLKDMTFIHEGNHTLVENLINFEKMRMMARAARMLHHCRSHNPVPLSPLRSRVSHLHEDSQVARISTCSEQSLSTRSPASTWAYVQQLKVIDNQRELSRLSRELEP
Assay: not given
Parameters: method as in PMID 12888551
Details: footnote c, see also ref 13; cited from earlier work

SMILES | AC50 | Rel. kmax
CNc1nc2c(N)ncnc2n1[C@@H]1O[C@@H]2COP(=O)(O)O[C@H]2[C@H]1O [L-005, 8-MeA-cAMP] | 19 µM | 0.5^c
Nc1ncnc2c1nc(Br)n2[C@@H]1O[C@@H]2COP(=O)(O)O[C@H]2[C@H]1O [L-002, 8-Br-cAMP] | 6.2 µM | 0.5^c
Nc1ncnc2c1ncn2[C@H]1C[C@@H]2OP(=O)(O)OC[C@H]2O1 [Z-001, 2′-dcAMP] | > 1000 µM | –
CO[C@H]1C2OP(=O)(O)OC[C@H]2O[C@H]1n1cnc2c(N)ncnc21 (stereo partly drawn) [Z-004, 2′-O-Me-cAMP] | > 100 µM | –
Nc1ncnc2c1[nH]c(=O)n2C1OC2COP(=O)(O)OC2C1O [L-021, 8-OH-cAMP] | 26 µM | 0.5^c

Target: T3, Epac1
Assay: Epac activation assay, Epac1
Type: biochemical
Details: Epac1

SMILES | AC50
CNc1nc2c(N)ncnc2n1[C@@H]1O[C@@H]2CO[P@](O)(=S)O[C@H]2[C@H]1O [S-030, Sp-8-MeA-cAMPS] | 30 µM
CSc1nc2c(N)ncnc2n1[C@@H]1O[C@@H]2COP(=O)(O)O[C@H]2[C@H]1SC [D-002, 8,2′-DMeT-cAMP] | 17 µM
Nc1ncnc2c1nc(SCc1ccccc1)n2[C@@H]1O[C@@H]2CO[P@](O)(=S)O[C@H]2[C@H]1F [S-222, Sp-8-BnT-2′-F-cAMPS] | 60 µM
Nc1ncnc2c1nc(Br)n2[C@@H]1O[C@@H]2COP(O)(=S)O[C@@H]2C1O (stereo partly drawn) [S-010, Sp-8-Br-cAMPS] | 16 µM

Same assay, conditions: Epac1; maximal activity relative to cAMP

SMILES | Rel. kmax
CNc1nc2c(N)ncnc2n1[C@@H]1O[C@@H]2CO[P@](O)(=S)O[C@H]2[C@H]1O [S-030, Sp-8-MeA-cAMPS] | 1.4
CSc1nc2c(N)ncnc2n1[C@@H]1O[C@@H]2COP(=O)(O)O[C@H]2[C@H]1SC [D-002, 8,2′-DMeT-cAMP] | 1.4
Nc1ncnc2c1nc(SCc1ccccc1)n2[C@@H]1O[C@@H]2CO[P@](O)(=S)O[C@H]2[C@H]1F [S-222, Sp-8-BnT-2′-F-cAMPS] | 0.09
Nc1ncnc2c1nc(Br)n2[C@@H]1O[C@@H]2COP(O)(=S)O[C@@H]2C1O (stereo partly drawn) [S-010, Sp-8-Br-cAMPS] | 1.0
